From patent publication US7659244B2, “Rapamycin peptides conjugates: synthesis and uses thereof” (Quest Pharmatech, Inc., priority 2004, dated 2010)
Read-outs that look alike come from different tables or passages of the source.

Legend:
[1] = read-out: Inhibition of H^3 Thymidine uptake (IC50 in nM), LS174T cells, 96 hours incubation
[2] = read-out: Inhibition of H^3 Thymidine uptake (IC50 in nM), A431 cells, 96 hours incubation
[3] = read-out: Inhibition of H^3 Thymidine uptake (IC50 in nM), OVCAR-3 cells, 96 hours incubation
[4] = read-out: Inhibition of H^3 Thymidine uptake (IC50 in nM), SKOV-3 cells, 96 hours incubation
[5] = read-out: Inhibition of H^3 Thymidine uptake (IC50 in nM), SKMEL-2 cells, 96 hours incubation
[6] = read-out: Inhibition of H^3 Thymidine uptake (IC50 in nM), Lncap cells, 96 hours incubation
[7] = read-out: Inhibition of H^3 Thymidine uptake (IC50 in nM), SK-N-SH cells, 96 hours incubation
[8] = read-out: Inhibition of H^3 Thymidine uptake (IC50 in nM), D341 cells, 96 hours incubation
[9] = read-out: Inhibition of H^3 Thymidine uptake (IC50 in nM), MCF-7 cells, 96 hours incubation

Compound | IC50 (LS174T; 96 h) [nM] | IC50 (A431; 96 h) [nM] | IC50 (OVCAR-3; 96 h) [nM] | IC50 (SKOV-3; 96 h) [nM] | IC50 (SKMEL-2; 96 h) [nM] | IC50 (Lncap; 96 h) [nM] | IC50 (SK-N-SH; 96 h) [nM] | IC50 (D341; 96 h) [nM] | IC50 (MCF-7; 96 h) [nM] | IC50 (LS174T; [1]) [nM] | IC50 (A431; [2]) [nM] | IC50 (OVCAR-3; [3]) [nM] | IC50 (SKOV-3; [4]) [nM] | IC50 (SKMEL-2; [5]) [nM] | IC50 (Lncap; [6]) [nM] | IC50 (SK-N-SH; [7]) [nM] | IC50 (D341; [8]) [nM] | IC50 (MCF-7; [9]) [nM]
Rapamycin-42-O-ester-(R) (+)-2-amino-3-phenyl-1-propanol [Compound 7k] | – | – | – | – | – | – | – | – | – | 1380 | 550 | 296 | 66 | 109 | 146 | 71.3 | 259 | 15.9
COC1CC2CCC(C)C(O)(O2)C(=O)C(=O)N2CCCCC2C(=O)OC(C(C)CC2CCC(OC(=O)NC(CO)CC(C)C)C(OC)C2)CC(=O)C(C)C=C(C)C(O)C(OC)C(=O)C(C)CC(C)C=CC=CC=C1C [Compound 7s, Rapamycin-42-O-ester-(R)-(−)-2-amino-4-methyl pentanol] | – | – | – | – | – | – | – | – | – | – | 625 | 355 | 93.6 | 154 | 189 | 97.3 | 103 | 15.6
CO[C@H]1C[C@@H]2CC[C@@H](C)[C@@](O)(O2)C(=O)C(=O)N2CCCC[C@H]2C(=O)O[C@H]([C@H](C)C[C@@H]2CC[C@@H](OC(=O)N[C@H](CO)Cc3ccccc3)[C@H](OC)C2)CC(=O)[C@H](C)/C=C(\C)[C@@H](O)[C@@H](OC)C(=O)[C@H](C)C[C@H](C)/C=C/C=C/C=C/1C [Compound 7j, Rapamycin-42-O-ester-(S) (−)-2-amino-3-phenyl-1-propanol] | – | – | – | – | – | – | – | – | – | – | 506 | 264 | 55.9 | 157 | 166 | 80 | 106 | 15.3
CO[C@H]1C[C@@H]2CC[C@@H](C)[C@@](O)(O2)C(=O)C(=O)N2CCCC[C@H]2C(=O)O[C@H]([C@H](C)C[C@@H]2CC[C@@H](OC(=O)NC(CO)CO)[C@H](OC)C2)CC(=O)[C@H](C)/C=C(\C)[C@@H](O)[C@@H](OC)C(=O)[C@H](C)C[C@H](C)/C=C/C=C/C=C/1C [Compound 7o, Rapamycin-42-O-ester-2-amino-1,3-propanediol] | – | – | – | – | – | – | – | – | – | 1030 | 150 | 80.7 | 27.4 | 48.3 | 39.6 | 5.84 | 36.2 | 2.58
CO[C@H]1C[C@@H]2CC[C@@H](C)[C@@](O)(O2)C(=O)C(=O)N2CCCC[C@H]2C(=O)O[C@H]([C@H](C)C[C@@H]2CC[C@@H](OC(=O)NC(CO)(CO)CO)[C@H](OC)C2)CC(=O)[C@H](C)/C=C(\C)[C@@H](O)[C@@H](OC)C(=O)[C@H](C)C[C@H](C)/C=C/C=C/C=C/1C [Compound 7u, Rapamycin-42-O-ester-Tris(hydroxymethyl)amino methane] | – | – | – | – | – | – | – | – | – | 1590 | 282 | 56.6 | 8.08 | 6.15 | 14 | 6.4 | 20.8 | 1.54
CC[C@H](C)[C@H](NC(=O)[C@H](CC(C)C)NC(=O)[C@H](C)NC(=O)[C@H](Cc1cn(C(c2ccccc2)(c2ccccc2)c2ccccc2)cn1)NC(=O)O[C@@H]1CC[C@@H](C[C@@H](C)[C@@H]2CC(=O)[C@H](C)/C=C(\C)[C@@H](O)[C@@H](OC)C(=O)[C@H](C)C[C@H](C)/C=C/C=C/C=C(\C)[C@@H](OC)C[C@@H]3CC[C@@H](C)[C@@](O)(O3)C(=O)C(=O)N3CCCC[C@H]3C(=O)O2)C[C@H]1OC)C(=O)N[C@@H](CO)Cc1ccccc1 [Compound 7h] | 777 | 2370 | 375 | 155 | 416 | 374 | 223 | 405 | 85.5 | – | – | – | – | – | – | – | – | –
CO[C@H]1C[C@@H]2CC[C@@H](C)[C@@](O)(O2)C(=O)C(=O)N2CCCC[C@H]2C(=O)O[C@H]([C@H](C)C[C@@H]2CC[C@@H](OC(=O)NC(C)(CO)CO)[C@H](OC)C2)CC(=O)[C@H](C)/C=C(\C)[C@@H](O)[C@@H](OC)C(=O)[C@H](C)C[C@H](C)/C=C/C=C/C=C/1C [Compound 7p, Rapamycin-42-O-ester-2-amino-2-methyl-1,3-propanediol] | – | – | – | – | – | – | – | – | – | 2310 | 254 | 79.3 | 8.8 | 17.7 | 7.12 | 7.19 | 10.2 | 1.17
CO[C@H]1C[C@@H]2CC[C@@H](C)[C@@](O)(O2)C(=O)C(=O)N2CCCC[C@H]2C(=O)O[C@H]([C@H](C)C[C@@H]2CC[C@@H](OC(=O)NC3C(=O)OC(C)(C)OC3=O)[C@H](OC)C2)CC(=O)[C@H](C)/C=C(\C)[C@@H](O)[C@@H](OC)C(=O)[C@H](C)C[C@H](C)/C=C/C=C/C=C/1C [Compound 7x] | – | – | – | – | – | – | – | – | – | 433 | – | – | 3.4 | 113 | 3.32 | 11.3 | – | 7.09
COC(=O)C(NC(=O)O[C@@H]1CC[C@@H](C[C@@H](C)[C@@H]2CC(=O)[C@H](C)/C=C(\C)[C@@H](O)[C@@H](OC)C(=O)[C@H](C)C[C@H](C)/C=C/C=C/C=C(\C)[C@@H](OC)C[C@@H]3CC[C@@H](C)[C@@](O)(O3)C(=O)C(=O)N3CCCC[C@H]3C(=O)O2)C[C@H]1OC)C(=O)OC [Compound 7w] | – | – | – | – | – | – | – | – | – | 859 | – | – | 26.5 | 378 | 83.5 | 164 | – | 103
CO[C@H]1C[C@@H]2CC[C@@H](C)[C@@](O)(O2)C(=O)C(=O)N2CCCC[C@H]2C(=O)O[C@H]([C@H](C)C[C@@H]2CC[C@@H](OC(=O)CCC(=O)N[C@H](CO)Cc3ccccc3)[C@H](OC)C2)CC(=O)[C@H](C)/C=C(\C)[C@@H](O)[C@@H](OC)C(=O)[C@H](C)C[C@H](C)/C=C/C=C/C=C/1C [Compound 7v, Rapamycin-42-O-(3-carboxypropanoyl) ester-(S) (−)-2-amino-3-phenyl-1-propanol] | – | – | – | – | – | – | – | – | – | – | 1030 | 95.5 | 10.4 | 81 | 48.3 | 18.8 | 15 | 5.52

More lines, main results first:

IC50 (LS174T; 96 h) [nM] | IC50 (A431; 96 h) [nM] | IC50 (OVCAR-3; 96 h) [nM] | IC50 (SKOV-3; 96 h) [nM] | IC50 (SKMEL-2; 96 h) [nM] | IC50 (Lncap; 96 h) [nM] | IC50 (SK-N-SH; 96 h) [nM] | IC50 (D341; 96 h) [nM] | IC50 (MCF-7; 96 h) [nM] | Compound | IC50 (LS174T; [1]) [nM] | IC50 (A431; [2]) [nM] | IC50 (OVCAR-3; [3]) [nM] | IC50 (SKOV-3; [4]) [nM] | IC50 (SKMEL-2; [5]) [nM] | IC50 (Lncap; [6]) [nM] | IC50 (SK-N-SH; [7]) [nM] | IC50 (D341; [8]) [nM] | IC50 (MCF-7; [9]) [nM]
626 | 608 | 416 | 80 | 78.1 | 154 | 86.9 | 138 | 29.6 | CC[C@H](C)[C@H](NC(=O)O[C@@H]1CC[C@@H](C[C@@H](C)[C@@H]2CC(=O)[C@H](C)/C=C(\C)[C@@H](O)[C@@H](OC)C(=O)[C@H](C)C[C@H](C)/C=C/C=C/C=C(\C)[C@@H](OC)C[C@@H]3CC[C@@H](C)[C@@](O)(O3)C(=O)C(=O)N3CCCC[C@H]3C(=O)O2)C[C@H]1OC)C(=O)N[C@@H](CO)Cc1ccccc1 [Compound 7a, Rapamycin-42-O-ester-(NH-L-Ile-D-Phe-CH2OH)] | – | – | – | – | – | – | – | – | –
146 | 490 | 503 | 76.6 | 155 | 191 | 90 | 82.8 | 66.9 | CC[C@H](C)[C@H](NC(=O)[C@H](CC(C)C)NC(=O)[C@H](C)NC(=O)O[C@@H]1CC[C@@H](C[C@@H](C)[C@@H]2CC(=O)[C@H](C)/C=C(\C)[C@@H](O)[C@@H](OC)C(=O)[C@H](C)C[C@H](C)/C=C/C=C/C=C(\C)[C@@H](OC)C[C@@H]3CC[C@@H](C)[C@@](O)(O3)C(=O)C(=O)N3CCCC[C@H]3C(=O)O2)C[C@H]1OC)C(=O)N[C@@H](CO)Cc1ccccc1 [Compound 7e, Rapamycin-42-O-ester-(NH-L-Ala-L-Leu-L-Ile-D-Phe-CH2OH)] | – | – | – | – | – | – | – | – | –
1700 | 286 | 260 | 72.1 | 87.4 | 212 | 111 | 114 | 32.3 | CC[C@H](C)[C@H](NC(=O)[C@H](CC(C)C)NC(=O)O[C@@H]1CC[C@@H](C[C@@H](C)[C@@H]2CC(=O)[C@H](C)/C=C(\C)[C@@H](O)[C@@H](OC)C(=O)[C@H](C)C[C@H](C)/C=C/C=C/C=C(\C)[C@@H](OC)C[C@@H]3CC[C@@H](C)[C@@](O)(O3)C(=O)C(=O)N3CCCC[C@H]3C(=O)O2)C[C@H]1OC)C(=O)N[C@@H](CO)Cc1ccccc1 [Compound 7c, Rapamycin-42-O-ester-(NH-L-Leu-L-Ile-D-Phe-CH2OH)] | – | – | – | – | – | – | – | – | –
– | 12700 | 343 | 94.3 | 358 | 198 | 137 | 140 | 52.2 | CC[C@H](C)[C@H](NC(=O)[C@@H](CC(C)C)NC(=O)O[C@@H]1CC[C@@H](C[C@@H](C)[C@@H]2CC(=O)[C@H](C)/C=C(\C)[C@@H](O)[C@@H](OC)C(=O)[C@H](C)C[C@H](C)/C=C/C=C/C=C(\C)[C@@H](OC)C[C@@H]3CC[C@@H](C)[C@@](O)(O3)C(=O)C(=O)N3CCCC[C@H]3C(=O)O2)C[C@H]1OC)C(=O)N[C@H](CO)Cc1ccccc1 [Compound 7d, Rapamycin-42-O-ester-(NH-D-Leu-L-Ile-S-Phe-CH2OH)] | – | – | – | – | – | – | – | – | –
3680 | – | – | 595 | 946 | – | – | 937 | 2440 | CC[C@H](C)[C@H](NC(=O)[C@H](CC(C)C)NC(=O)[C@H](C)NC(=O)[C@@H](Cc1cn(C(c2ccccc2)(c2ccccc2)c2ccccc2)cn1)NC(=O)O[C@@H]1CC[C@@H](C[C@@H](C)[C@@H]2CC(=O)[C@H](C)/C=C(\C)[C@@H](O)[C@@H](OC)C(=O)[C@H](C)C[C@H](C)/C=C/C=C/C=C(\C)[C@@H](OC)C[C@@H]3CC[C@@H](C)[C@@](O)(O3)C(=O)C(=O)N3CCCC[C@H]3C(=O)O2)C[C@H]1OC)C(=O)N[C@@H](CO)Cc1ccccc1 [Compound 7g] | – | – | – | – | – | – | – | – | –
